Laboratory results reported in patent US12522587B2, “Cancer treatments targeting cancer stem cells” (Remedy Plan, Inc., priority 2018, dated 2026).

System: AGS human gastric adenocarcinoma cells
Assay: Human microarray study (Affymetrix Clariom S) of treated AGS cells
Type: cell-based
Details: two days, positive = downregulated
Experimental: AGS human gastric adenocarcinoma cells were treated with compound I-1, or DMSO alone (as a negative control) for two days. After two days, RNA was isolated from compound I-1 treated cells and DMSO treated cells, in duplicate, and subjected to microarray analysis using AFFYMETRIX CLARIOM S microarrays. Data were represented as fold change relative to the compound I-1 treated cells, negative values represented genes that were on higher in compound I-1 treated cells than in DMSO treated cells, and positive values represented genes that were on higher in DMSO treated cells than in compound I-1 treated cells. Values were averaged for the duplicate samples. We included data for the genes whose expression was altered by more than 3 fold, either up or down, in response to compound I-1.
Negative numbers indicate fold upregulation upon drug treatment. Positive numbers indicate fold downregulation upon drug treatment. […] In addition, Chac1, PCK2, and SLC7A11 were all shown to have a tumor promoting activity and to be associated with the more dangerous and lethal forms of cancer, and these three genes were the three most strongly repressed genes measured in this analysis. There were other examples in the data that supported this model, but the overall model was that compound I-1 increased the expression of tumor suppressor genes, and decreased the expression of tumor promoting genes.

SMILES: CCC(=O)N1CCc2cc(-c3ccc(C(=O)NCc4cccnc4)cc3)ccc21 [Compound I-1]
- Fold Change CEBPG: 3.29 fold
- Fold Change CHAC1: 43.64 fold
- Fold Change CRNDE: 7.6 fold
- Fold Change CTH: 12.23 fold
- Fold Change CTNS: 3.16 fold
- Fold Change CYP1A1: 12.34 fold
- Fold Change DCLRE1A: 3.36 fold
- Fold Change DDIT3: 3.76 fold
- Fold Change DDIT4: 14.73 fold
- Fold Change DEPTOR: 3.05 fold
- Fold Change DMBT1: 3.25 fold
- Fold Change EEF2KMT: 4.01 fold
- Fold Change EFHC1: 3.67 fold
- Fold Change EIF4EBP1: 6.66 fold
- Fold Change ERICH2: 3.35 fold
- Fold Change EXOSC8: 3.68 fold
- Fold Change FAIM: 3.09 fold
- Fold Change FAM27E3: 4.39 fold
- Fold Change FAM86B1: 3.53 fold
- Fold Change FAM86C1: 3.18 fold
- Fold Change FAM111B: 3.46 fold
- Fold Change FAM216A: 3 fold
- Fold Change FIGNL1: 4.84 fold
- Fold Change FILIP1L: 3.7 fold
- Fold Change FUT1: 3.48 fold
- Fold Change GARS: 3.24 fold
- Fold Change GEN1: 3.39 fold
- Fold Change GPX8: 3.7 fold
- Fold Change GRB10: 3.1 fold
- Fold Change GSTM2: 3.25 fold
- Fold Change GSTM4: 4.02 fold
- Fold Change GTPBP2: 4.3 fold
- Fold Change H1F0: 3.59 fold
- Fold Change HAX1: 3.68 fold
- Fold Change HIST1H1B: 4.91 fold
- Fold Change HIST1H1C: 4.26 fold
- Fold Change HIST1H1D: 5.18 fold
- Fold Change HIST1H1E: 3.75 fold
- Fold Change HIST1H2AB: 6.88 fold
- Fold Change HIST1H2AE: 5.92 fold
- Fold Change HIST1H2AG: 5.06 fold
- Fold Change HIST1H2AI: 5.81 fold
- Fold Change HIST1H2AJ: 3.77 fold
- Fold Change HIST1H2AK: 3.52 fold
- Fold Change HIST1H2AL; HIST1H2BN: 3.72 fold
- Fold Change HIST1H2AM; HIST1H3J: 6.91 fold
- Fold Change HIST1H2BB: 3.09 fold
- Fold Change HIST1H2BE: 3.05 fold
- Fold Change HIST1H2BF: 3.75 fold
- Fold Change HIST1H2BG: 3.8 fold
- Fold Change HIST1H2BH: 3.09 fold
- Fold Change HIST1H2BI: 8.02 fold
- Fold Change HIST1H2BJ: 4.83 fold
- Fold Change HIST1H2BK: 3.06 fold
- Fold Change HIST1H2BL: 5.51 fold
- Fold Change HIST1H2BM: 12.33 fold
- Fold Change HIST1H3A: 3.04 fold
- Fold Change HIST1H3B: 5.94 fold
- Fold Change HIST1H3D; HIST1H2AD: 4.82 fold
- Fold Change HIST1H3F: 6.21 fold
- Fold Change HIST1H3G: 9.34 fold
- Fold Change HIST1H3H: 7.63 fold
- Fold Change HIST1H3I: 4.49 fold
- Fold Change HIST1H4A: 5.75 fold
- Fold Change HIST1H4D: 3.02 fold
- Fold Change HIST1H4H: 3.25 fold
- Fold Change HIST2H2AA3; HIST2H2AA4: 3.2 fold
- Fold Change HIST2H2AA4; HIST2H2AA3: 3.08 fold
- Fold Change HIST2H3A: 10.31 fold
- Fold Change HIST2H3A; HIST2H3C: 8.95 fold
- Fold Change HIST2H3D: 4.21 fold
- Fold Change HIST2H4A; HIST2H4B: 3.94 fold
- Fold Change HIST2H4B; HIST2H4A: 3.79 fold
- Fold Change HMMR: 4.62 fold
- Fold Change HOXB9: 5.66 fold
- Fold Change IARS: 3.29 fold
- Fold Change IFRD1: 6.11 fold
- Fold Change IFT88: 4.63 fold
- Fold Change IGF2BP3: 5.34 fold
- Fold Change IL20RB: 4.75 fold
- Fold Change INHBE: 12.74 fold
- Fold Change IRAK1BP1: 3.59 fold
- Fold Change IZUMO1: 4.5 fold
- Fold Change JDP2: 4.94 fold
- Fold Change KIF15: 3.66 fold
- Fold Change KIF21B: 3.52 fold
- Fold Change KLHL5: 3.17 fold
- Fold Change LGALS4: 3.06 fold
- Fold Change LMO4: 3.1 fold
- Fold Change LRRC8D: 3.82 fold
- Fold Change LYRM7: 3.58 fold
- Fold Change MARS; MIR6758: 3.79 fold
- Fold Change MAT2A: 5.04 fold
- Fold Change MB21D2: 4.66 fold
- Fold Change METTL4: 4.39 fold
- Fold Change MINA: 3.05 fold
- Fold Change MIR17HG; MIR17; MIR18A; MIR19A; MIR19B1; MIR20A; MIR92A1: 3.18 fold
- Fold Change MOCOS: 5.87 fold
- Fold Change MTHFD2: 3.26 fold
- Fold Change NCOA5: 3 fold
- Fold Change NCOA7: 3.2 fold
- Fold Change NEDD4: 3.11 fold
- Fold Change NOX1: 6.01 fold
- Fold Change NPIPA2: 3.06 fold
- Fold Change NPIPA3: 3.17 fold
- Fold Change NPIPA5: 3.15 fold
- Fold Change NPIPA7; NPIPA8; PKD1P1: 3.01 fold
- Fold Change NPIPA8: 3.2 fold
- Fold Change NUPR1: 5.76 fold
- Fold Change ORAOV1: 3.3 fold
- Fold Change PCK2: 17.83 fold
- Fold Change PDK1: 3.5 fold
- Fold Change PHLDB2; PLCXD2: 3.75 fold
- Fold Change PKD1; MIR6511B2; MIR6511B1: 3.36 fold
- Fold Change PKD2: 3.76 fold
- Fold Change PKDCC: 3.89 fold
- Fold Change PRIM1: 4.42 fold
- Fold Change PSAT1: 7.92 fold
- Fold Change PSPH: 4.23 fold
- Fold Change PTER: 3.93 fold
- Fold Change PTPRB: 3.96 fold
- Fold Change PYROXD1: 3.74 fold
- Fold Change RASGRP3: 3.19 fold
- Fold Change RASIP1: 3.21 fold
- Fold Change RBBP9: 3.05 fold
- Fold Change RBCK1: 4.36 fold
- Fold Change REG4: 3.04 fold
- Fold Change RFXAP: 4.14 fold
- Fold Change RNF170; MIR4469: 3.95 fold
- Fold Change S100P: 4.36 fold
- Fold Change SERPINB8: 6.07 fold
- Fold Change SETMAR: 3.32 fold
- Fold Change SH2B3: 4.5 fold
- Fold Change SHMT2: 3.22 fold
- Fold Change SLC1A4: 8.26 fold
- Fold Change SLC1A5: 4.04 fold
- Fold Change SLC6A9: 7.78 fold
- Fold Change SLC7A1: 3.19 fold
- Fold Change SLC7A5: 7.31 fold
- Fold Change SLC7A11: 15.27 fold
- Fold Change SLC16A4: 3.65 fold
- Fold Change SLC38A1: 3.03 fold
- Fold Change SLC43A1: 8.25 fold
- Fold Change SLC46A1: 5.39 fold
- Fold Change SLCO1B3: 3.61 fold
- Fold Change ST6GALNAC3: 4.78 fold
- Fold Change STAMBPL1: 3 fold
- Fold Change STPG1: 3.97 fold
- Fold Change SYNPO: 3.2 fold
- Fold Change TADA2A: 3.37 fold
- Fold Change TFF1: 11.81 fold
- Fold Change THOC1: 3.18 fold
- Fold Change TMEM218: 3.29 fold
- Fold Change TNFRSF9: 8.19 fold
- Fold Change TSEN15: 3.5 fold
- Fold Change TUBE1: 5.83 fold
- Fold Change UNC93A: 3.31 fold
- Fold Change WARS: 4.85 fold
- Fold Change WBP4: 3.63 fold
- Fold Change XPA: 3.25 fold
- Fold Change XRCC2: 3.5 fold
- Fold Change YAE1D1: 3.02 fold
- Fold Change ZBED8: 4.58 fold
- Fold Change ZC3H8: 4.04 fold
- Fold Change ZCCHC8: 3.9 fold
- Fold Change ZFAND1: 3.29 fold
- Fold Change ZNF302: 4.83 fold
- Fold Change ZNF518A: 4.12 fold
- Fold Change ZNF780B (first ZNF780B entry): 3.19 fold
- Fold Change ZNF780B (second ZNF780B entry): 3.19 fold
